Assay results from the supplement of paper PMC13380429.

Assays:
Conditions in all cases: 72 h
U2OS [1] = assay: drug sensitivity score (DSS) for viability; higher = more toxic; extreme values may be limits of the assay
Caco-2 [2] = assay: as above
HepG2 [3] = assay: as above
Calu-3 [4] = assay: as above
Vero E6 [5] = assay: as above
U2OS [6] = assay: relative viability EC50 (midpoint between 100% and the lowest measured viability); higher = less toxic
Caco-2 [7] = assay: as above
HepG2 [8] = assay: as above
Calu-3 [9] = assay: as above
Vero E6 [10] = assay: as above
U2OS [11] = assay: cell viability relative to DMSO; higher = less toxic
Caco-2 [12] = assay: as above
HepG2 [13] = assay: as above
Calu-3 [14] = assay: as above
Vero E6 [15] = assay: as above

Structure (SMILES) | drug sensitivity score (U2OS [1]) | drug sensitivity score (Caco-2 [2]) | drug sensitivity score (HepG2 [3]) | drug sensitivity score (Calu-3 [4]) | drug sensitivity score (Vero E6 [5]) | relative viability EC50 (U2OS [6]) | relative viability EC50 (Caco-2 [7]) | relative viability EC50 (HepG2 [8]) | relative viability EC50 (Calu-3 [9]) | relative viability EC50 (Vero E6 [10]) | cell viability (U2OS [11]; 1 nM) | cell viability (U2OS [11]; 10 nM) | cell viability (U2OS [11]; 100 nM) | cell viability (U2OS [11]; 1000 nM) | cell viability (U2OS [11]; 10000 nM) | cell viability (Caco-2 [12]; 1 nM) | cell viability (Caco-2 [12]; 10 nM) | cell viability (Caco-2 [12]; 100 nM) | cell viability (Caco-2 [12]; 1000 nM) | cell viability (Caco-2 [12]; 10000 nM) | cell viability (HepG2 [13]; 1 nM) | cell viability (HepG2 [13]; 10 nM) | cell viability (HepG2 [13]; 100 nM) | cell viability (HepG2 [13]; 1000 nM) | cell viability (HepG2 [13]; 10000 nM) | cell viability (Calu-3 [14]; 1 nM) | cell viability (Calu-3 [14]; 10 nM) | cell viability (Calu-3 [14]; 100 nM) | cell viability (Calu-3 [14]; 1000 nM) | cell viability (Calu-3 [14]; 10000 nM) | cell viability (Vero E6 [15]; 1 nM) | cell viability (Vero E6 [15]; 10 nM) | cell viability (Vero E6 [15]; 100 nM) | cell viability (Vero E6 [15]; 1000 nM) | cell viability (Vero E6 [15]; 10000 nM)
O=C(Nc1ccccc1)OCC(CN1CCCCC1)OC(=O)Nc1ccccc1 (stereo not given) [diperodon] | 0 | 0 | 0 | 0 | 0 | > 10 µM | > 10 µM | > 10 µM | > 10 µM | > 10 µM | 95.5% | 93.6% | 94.5% | 91.8% | 94.4% | 87.6% | 89.7% | 87.6% | 83% | 95.5% | 100% | 97.8% | 96.1% | 110% | 103% | 112% | 122% | 93.3% | 104% | 98.8% | 90.9% | 95.5% | 87% | 96.6% | 100%
CC(CCc1ccc(O)cc1)NCCc1ccc(O)c(O)c1 (stereo not given) [dobutamine] | 0 | 0 | 0 | 0 | 0 | > 10 µM | > 10 µM | > 10 µM | > 10 µM | > 10 µM | 101% | 96.6% | 97.7% | 102% | 98% | 106% | 99.2% | 99.3% | 95% | 104% | 106% | 110% | 93.1% | 96.7% | 93.3% | 90.2% | 79.6% | 92.8% | 96.9% | 105% | 106% | 103% | 97.1% | 98.5% | 103%
CCOC(=O)/C=C(C)/C=C/C=C(C)/C=C/c1c(C)cc(OC)c(C)c1C [etretinate] | 0 | 0 | 0 | 0 | 0 | > 10 µM | > 10 µM | > 10 µM | > 10 µM | > 10 µM | 96% | 101% | 98.1% | 100% | 99.5% | 100% | 107% | 92.2% | 111% | 95.3% | 94.2% | 99.4% | 103% | 102% | 102% | 101% | 101% | 97.5% | 106% | 109% | 97.9% | 96.6% | 93% | 98.5% | 108%
CC(C)c1cc(-c2n[nH]c(=O)n2-c2ccc3c(ccn3C)c2)c(O)cc1O [ganetespib] | 30.2 | 21.3 | 35.3 | 19.1 | 19.9 | 0.0307 µM | 0.0369 µM | 0.0114 µM | 0.0478 µM | 0.0685 µM | 98.4% | 96.7% | 3.7% | 3.4% | 1.5% | 99.9% | 95.4% | 37.4% | 35.2% | 29.3% | 97.7% | 56.6% | 2.3% | 1.2% | 1.1% | 91.5% | 95.9% | 47.8% | 35.7% | 32.5% | 101% | 107% | 46.3% | 25.9% | 29.1%
CO/N=C1\CN(c2nc3c(cc2F)c(=O)c(C(=O)O)cn3C2CC2)CC1CN (stereo not given) [gemifloxacin] | 0 | 0 | 0.1 | 0 | 0 | > 10 µM | > 10 µM | > 10 µM | > 10 µM | > 10 µM | 97% | 102% | 97.3% | 100% | 94.3% | 92.2% | 114% | 105% | 96.9% | 95.9% | 105% | 108% | 105% | 100% | 86.8% | 99.6% | 98.5% | 98.4% | 98.5% | 105% | 103% | 102% | 102% | 102% | 95.7%
Cc1cc2c(C(C)C)c(O)c(O)c(C=O)c2c(O)c1-c1c(C)cc2c(C(C)C)c(O)c(O)c(C=O)c2c1O [gossypol] | 5.5 | 7 | 5.6 | 3.2 | 5 | 2.81 µM | 2.41 µM | 2.84 µM | 3.4 µM | 3.05 µM | 96.8% | 101% | 98.6% | 95.9% | 11.9% | 101% | 104% | 107% | 90.9% | 0.8% | 102% | 96.3% | 95.3% | 96.1% | 9.6% | 100% | 100% | 103% | 103% | 36.9% | 100% | 98.1% | 97.6% | 98.6% | 13.1%
CC(CNC1CCCCC1)OC(=O)c1ccccc1 (stereo not given) [hexylcaine] | 0 | 0 | 0 | 0 | 0 | > 10 µM | > 10 µM | > 10 µM | > 10 µM | > 10 µM | 103% | 101% | 99.1% | 103% | 104% | 99% | 88.5% | 98% | 105% | 102% | 106% | 102% | 91% | 88.5% | 102% | 104% | 107% | 95.2% | 103% | 95.5% | 97.3% | 102% | 96.8% | 93.1% | 105%
